Measurements reported in patent US12371464B2, “Polypeptides and uses thereof” (MEDIMMUNE LIMITED, priority 2020, dated 2025).
Each block holds one molecule with its values, some of them ahead of it. Numbered stars: 1 amine (or outer) side, 2 acyl side, 3 side chain; on linkers, the order of the positions; unused ones are H or OH. Bridge positions count the residues as written; N and C are the ends. Square brackets hold non-standard residues; d marks the D form. Side chains are listed from the residue outwards. Peptide text beside a SMILES is read from it. * marks the point of attachment. C18 diacid = O=C(O)CCCCCCCCCCCCCCCCC(=O)*; γGlu = O=C(O)[C@H](CCC(=O)[*:2])N[*:1]; αMeF = C[C@](N)(Cc1ccccc1)C(=O)O; Aib = CC(C)(N)C(=O)O

Tests used:
[1] = Thioflavin T fibrillation assay; format: physicochemical; details: 1 mg/mL in 25 mM sodium acetate buffer pH 4.0, 37° C., 6 days, orbital shaking; >144 h = no increase
In short: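 Peptides at 1 mg/mL in 25 mM sodium acetate pH 4.0 were mixed with ThT (0.25 mM stock) and held 6 days at 37 °C with intermittent orbital shaking at 500–750 rpm. Fluorescence (ex 444/em 480 nm) was read every 30 min, with buffer baseline correction and 5 replicates. Value: mean time to a detectable fluorescence increase.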

lean rats = assay: Rat acute food intake study; format: in vivo, Sprague Dawley rats; details: 20 nmol/kg subcutaneously
Procedure: Male Sprague Dawley rats were obtained from Taconic Denmark, ApS at approximately 7 weeks of age. . . . Rats were implanted with a microchip for identification, housed 4/cage with enrichment, free access to food and water, and allowed one week acclimatisation while non-invasive characterization was performed. Rats were on a 12:12 light:dark cycle that switches at 1 pm:1 am. Food intake was monitored via the HM2 system (Lafayette Instrument) that allows for monitoring in a home cage. As each rat enters an access tunnel to feed, an IR beam is broken, and the implanted microchip is read. Resulting changes to food weight is then assigned to the specific animal. Social order has shown no impact to overall feeding patterns and amounts.
Rats were sorted into groups based on Day-1 body weight and 24-hour accumulated food intake (n=7 per group). On Day 0 rats were weighed, then fasted for 6 hours. Thirty (30) minutes prior to the reintroduction of food, rats were dosed subcutaneously (5 ml/kg) with 20 nmol/kg of test compound or 60 nmol/kg peptide 1 (pramlintide) diluted in an appropriate vehicle, after which food was returned, and lights went out. Automated food intake was monitored for the following 3 days, and rats were weighed once per day.
Food intake per rat was batched into 1-hour intervals and integrated into Gubra's GubraView data management system. Discrete food intake data was exported into MS Excel from which cumulative food intake data was generated. Cumulative food intake data was then transposed into GraphPad Prism (v8.0.1) for analysis of dark period feeding

Time taken to detect increase in fluorescence intensity [1]: >144 h
SMILES: CC[C@H](C)[C@H](NC(=O)[C@@H]1CCCN1C(=O)CNC(=O)[C@](C)(Cc1ccccc1)NC(=O)[C@H](CC(N)=O)NC(=O)[C@H](CC(N)=O)NC(=O)[C@H](CO)NC(=O)[C@H](CO)NC(=O)[C@H](Cc1c[nH]cn1)NC(=O)[C@H](CCCNC(=N)N)NC(=O)[C@H](CC(C)C)NC(=O)[C@H](Cc1ccccc1)NC(=O)[C@H](CC(N)=O)NC(=O)[C@H](C)NC(=O)[C@H](CC(C)C)NC(=O)[C@H](CCCNC(=N)N)NC(=O)[C@H](CCC(N)=O)NC(=O)[C@@H](NC(=O)[C@H](C)NC(=O)[C@@H]1CSSC[C@H](NC(=O)[C@@H](N)CCCCNC(=O)CC[C@H](NC(=O)CC[C@H](NC(=O)CCCCCCCCCCCCCCCCC(=O)O)C(=O)O)C(=O)O)C(=O)N[C@@H](CC(N)=O)C(=O)N[C@@H]([C@@H](C)O)C(=O)N[C@@H](C)C(=O)N[C@@H]([C@@H](C)O)C(=O)N1)[C@@H](C)O)C(=O)N[C@@H](CC(C)C)C(=O)N1CCC[C@H]1C(=O)N1CCC[C@H]1C(=O)N[C@H](C(=O)N[C@@H](CC(N)=O)C(=O)N[C@H](C(=O)NCC(=O)N[C@@H](CO)C(=O)N[C@@H](CC(N)=O)C(=O)N[C@H](C(=O)N[C@@H](Cc1ccc(O)cc1)C(N)=O)[C@@H](C)O)C(C)C)[C@@H](C)O [Peptide 20, K(γE-γE-C18diacid)[CNTATC]ATQRLANFLRHSSNN(αMePhe)GPILPPTNVGSNTY-amide] (H-K([γGlu-γGlu-C18 diacid])CNTATCATQRLANFLRHSSNN[αMeF]GPILPPTNVGSNTY-NH2; disulfide 2-7; N-terminus assumed)
Cummulative food intake (% vehicle treated intake) At 12 h (lean rats): 27 % vehicle treated intake

Time taken to detect increase in fluorescence intensity [1]: >144 h
SMILES: CC[C@H](C)[C@H](NC(=O)[C@@H]1CCCN1C(=O)CNC(=O)[C@H](Cc1ccccc1)NC(=O)[C@H](CC(N)=O)NC(=O)[C@H](CC(N)=O)NC(=O)[C@H](CO)NC(=O)[C@H](CO)NC(=O)[C@H](Cc1c[nH]cn1)NC(=O)C(C)(C)NC(=O)[C@H](CC(C)C)NC(=O)[C@H](Cc1ccccc1)NC(=O)[C@H](CC(N)=O)NC(=O)[C@H](C)NC(=O)[C@H](CC(C)C)NC(=O)[C@H](CCCNC(=N)N)NC(=O)[C@H](CCC(N)=O)NC(=O)[C@@H](NC(=O)[C@H](C)NC(=O)[C@@H]1CSSC[C@H](NC(=O)[C@H](CCCCN)NC(=O)[C@@H](N)CCCCNC(=O)CC[C@H](NC(=O)CCCCCCCCCCCCCCCCC(=O)O)C(=O)O)C(=O)N[C@@H](CC(N)=O)C(=O)N[C@@H]([C@@H](C)O)C(=O)N[C@@H](C)C(=O)N[C@@H]([C@@H](C)O)C(=O)N1)[C@@H](C)O)C(=O)N[C@@H](CC(C)C)C(=O)N1CCC[C@H]1C(=O)N1CCC[C@H]1C(=O)N[C@H](C(=O)N[C@@H](CC(N)=O)C(=O)N[C@H](C(=O)NCC(=O)N[C@@H](CO)C(=O)N[C@@H](CC(N)=O)C(=O)N[C@H](C(=O)N[C@@H](Cc1ccc(O)cc1)C(N)=O)[C@@H](C)O)C(C)C)[C@@H](C)O [Peptide 129] (H-K([γGlu-C18 diacid])KCNTATCATQRLANFL[Aib]HSSNNFGPILPPTNVGSNTY-NH2; disulfide 3-8; N-terminus assumed)
Cummulative food intake (% vehicle treated intake) At 12 h (lean rats): 29 % vehicle treated intake
Cummulative food intake (% vehicle treated intake) At 48 h (lean rats): 51 % vehicle treated intake

The remaining lines, values behind:

SMILES: CC[C@H](C)[C@H](NC(=O)[C@@H]1CCCN1C(=O)CNC(=O)[C@](C)(Cc1ccccc1)NC(=O)[C@H](CC(N)=O)NC(=O)[C@H](CC(N)=O)NC(=O)[C@H](CO)NC(=O)[C@H](CO)NC(=O)[C@H](Cc1c[nH]cn1)NC(=O)[C@H](CCCNC(=N)N)NC(=O)[C@H](CC(C)C)NC(=O)[C@H](Cc1ccccc1)NC(=O)[C@H](CCC(=O)O)NC(=O)[C@H](C)NC(=O)[C@H](CC(C)C)NC(=O)[C@H](CCCNC(=N)N)NC(=O)[C@H](CCC(N)=O)NC(=O)[C@@H](NC(=O)[C@H](C)NC(=O)[C@@H]1CSSC[C@H](NC(=O)[C@H](CCCCN)NC(=O)[C@@H](N)CCCCNC(=O)CC[C@H](NC(=O)CCCCCCCCCCCCCCCCC(=O)O)C(=O)O)C(=O)N[C@@H](CC(N)=O)C(=O)N[C@@H]([C@@H](C)O)C(=O)N[C@@H](C)C(=O)N[C@@H]([C@@H](C)O)C(=O)N1)[C@@H](C)O)C(=O)N[C@@H](CC(C)C)C(=O)N1CCC[C@H]1C(=O)N1CCC[C@H]1C(=O)N[C@H](C(=O)N[C@@H](CC(N)=O)C(=O)N[C@H](C(=O)NCC(=O)N[C@@H](CO)C(=O)N[C@@H](CC(N)=O)C(=O)N[C@H](C(=O)N[C@@H](Cc1ccc(O)cc1)C(N)=O)[C@@H](C)O)C(C)C)[C@@H](C)O [Peptide 12, K(γE-C18diacid)K[CNTATC]ATQRLAEFLRHSSNN(αMePhe)GPILPPTNVGSNTY-amide] (H-K([γGlu-C18 diacid])KCNTATCATQRLAEFLRHSSNN[αMeF]GPILPPTNVGSNTY-NH2; disulfide 3-8; N-terminus assumed)
Time taken to detect increase in fluorescence intensity [1]: >144 h
Cummulative food intake (% vehicle treated intake) At 12 h (lean rats): 9.4 % vehicle treated intake
Cummulative food intake (% vehicle treated intake) At 24 h (lean rats; at 24 h): 7.5 % vehicle treated intake

SMILES: CC[C@H](C)[C@H](NC(=O)[C@@H]1CCCN1C(=O)CNC(=O)[C@](C)(Cc1ccccc1)NC(=O)[C@H](CC(N)=O)NC(=O)[C@H](CC(N)=O)NC(=O)[C@H](CO)NC(=O)[C@H](CO)NC(=O)[C@H](Cc1c[nH]cn1)NC(=O)[C@H](CCCNC(=N)N)NC(=O)[C@H](CC(C)C)NC(=O)[C@H](Cc1ccccc1)NC(=O)[C@H](CC(N)=O)NC(=O)[C@H](C)NC(=O)[C@H](CC(C)C)NC(=O)[C@H](CCCNC(=N)N)NC(=O)[C@H](CCC(N)=O)NC(=O)[C@@H](NC(=O)[C@H](C)NC(=O)[C@@H]1CSSC[C@H](NC(=O)[C@H](CCCCN)NC(=O)[C@@H](N)CCCCNC(=O)CC[C@H](NC(=O)CCCCCCCCCCCCCCCCC(=O)O)C(=O)O)C(=O)N[C@@H](CC(N)=O)C(=O)N[C@@H]([C@@H](C)O)C(=O)N[C@@H](C)C(=O)N[C@@H]([C@@H](C)O)C(=O)N1)[C@@H](C)O)C(=O)N[C@@H](CC(C)C)C(=O)N1CCC[C@H]1C(=O)N1CCC[C@H]1C(=O)N[C@H](C(=O)N[C@@H](CCC(=O)O)C(=O)N[C@H](C(=O)NCC(=O)N[C@@H](CO)C(=O)N[C@@H](CC(N)=O)C(=O)N[C@H](C(=O)N[C@@H](Cc1ccc(O)cc1)C(N)=O)[C@@H](C)O)C(C)C)[C@@H](C)O [Peptide 15, K(γE-C18diacid)K[CNTATC]ATQRLANFLRHSSNN(αMePhe)GPILPPTEVGSNTY-amide] (H-K([γGlu-C18 diacid])KCNTATCATQRLANFLRHSSNN[αMeF]GPILPPTEVGSNTY-NH2; disulfide 3-8; N-terminus assumed)
Time taken to detect increase in fluorescence intensity [1]: >144 h
Cummulative food intake (% vehicle treated intake) At 48 h (lean rats): 51 % vehicle treated intake

SMILES: CC[C@H](C)[C@H](NC(=O)[C@@H]1CCCN1C(=O)CNC(=O)[C@H](Cc1ccccc1)NC(=O)[C@H](CC(N)=O)NC(=O)[C@H](CC(N)=O)NC(=O)[C@H](CO)NC(=O)[C@H](CO)NC(=O)[C@H](Cc1c[nH]cn1)NC(=O)C(C)(C)NC(=O)[C@H](CC(C)C)NC(=O)[C@H](Cc1ccccc1)NC(=O)[C@H](CC(N)=O)NC(=O)[C@H](C)NC(=O)[C@H](CC(C)C)NC(=O)[C@H](CCCNC(=N)N)NC(=O)[C@H](CCC(N)=O)NC(=O)[C@@H](NC(=O)[C@H](C)NC(=O)[C@@H]1CSSC[C@H](NC(=O)[C@@H](N)CCCCNC(=O)CC[C@H](NC(=O)CCCCCCCCCCCCCCCCC(=O)O)C(=O)O)C(=O)N[C@@H](CC(N)=O)C(=O)N[C@@H]([C@@H](C)O)C(=O)N[C@@H](C)C(=O)N[C@@H]([C@@H](C)O)C(=O)N1)[C@@H](C)O)C(=O)N[C@@H](CC(C)C)C(=O)N1CCC[C@H]1C(=O)N1CCC[C@H]1C(=O)N[C@H](C(=O)N[C@@H](CC(N)=O)C(=O)N[C@H](C(=O)NCC(=O)N[C@@H](CO)C(=O)N[C@@H](CC(N)=O)C(=O)N[C@H](C(=O)N[C@@H](Cc1ccc(O)cc1)C(N)=O)[C@@H](C)O)C(C)C)[C@@H](C)O [Peptide 149] (H-K([γGlu-C18 diacid])CNTATCATQRLANFL[Aib]HSSNNFGPILPPTNVGSNTY-NH2; disulfide 2-7; N-terminus assumed)
Cummulative food intake (% vehicle treated intake) At 12 h (lean rats): 31 % vehicle treated intake
